In ChEMBL document CHEMBL1132862, “Structure-activity and crystallographic analysis of a new class of non-amide-based thrombin inhibitor” (Bioorg Med Chem Lett, 2000):

Molecular target: Prothrombin (Homo sapiens, UniProt P00734)
Test: Anti- Thrombin activity using standard chromogenic assay

| Structure (SMILES) | Ki [nM] |
| --- | --- |
| N=C(N)N1CCC(COc2cc(CO)cc(OS(=O)(=O)c3ccccc3Cl)c2)CC1 | 490 |
| COc1cc(OCC2CCN(C(=N)N)CC2)cc(OS(=O)(=O)c2ccccc2Cl)c1 | 44 |
| N=C(N)N1CCC(COc2cccc(OS(=O)(=O)c3ccccc3Cl)c2)CC1 | 190 |
| Cc1cc(OCC2CCN(C(=N)N)CC2)cc(OS(=O)(=O)c2ccc(N)cc2)c1 | 399 |
| Cc1cc(OCC2CC[N+](=C([NH-])N)CC2)cc(OS(=O)(=O)c2cccc([N+](=O)[O-])c2)c1 (stereo not given) | 115 |
| Cc1cc(OCC2CC[N+](=C([NH-])N)CC2)cc(OS(=O)(=O)c2ccc([N+](=O)[O-])cc2)c1 (stereo not given) | 327 |
| COC(=O)c1cc(OCC2CCN(C(=N)N)CC2)cc(OS(=O)(=O)c2ccccc2Cl)c1 | 3700 |
| Cc1cc(OCC2CCN(C(=N)N)CC2)cc(OS(=O)(=O)c2cccc(C(F)(F)F)c2)c1 | 445 |
| CCc1cc(OCC2CCN(C(=N)N)CC2)cc(OS(=O)(=O)c2ccccc2Cl)c1 | 39 |
| Cc1cc(OCC2CCN(C(=N)N)CC2)cc(OS(=O)(=O)c2cccc(Cl)c2)c1 | 39 |
| Cc1cc(OCC2CCN(C(=N)N)CC2)cc(OS(=O)(=O)c2ccccc2N)c1 | 52 |

The next compounds have a lower Ki than those just listed; values first:

| Ki [nM] | Structure (SMILES) |
| --- | --- |
| 36 | Cc1cc(OCC2CCN(C(=N)N)CC2)cc(OS(=O)(=O)c2cccc(C)c2)c1 |
| 14 | Cc1cc(OCC2CCN(C(=N)N)CC2)cc(OS(=O)(=O)c2ccccc2C(F)(F)F)c1 |
| 32 | Cc1cc(OCC2CCN(C(=N)N)CC2)cc(OS(=O)(=O)c2cccc(N)c2)c1 |
| 28 | COC(=O)c1ccccc1S(=O)(=O)Oc1cc(C)cc(OCC2CCN(C(=N)N)CC2)c1 |
| 22 | Cc1cc(OCC2CCN(C(=N)N)CC2)cc(OS(=O)(=O)c2cccc(Cl)c2Cl)c1 |
| 30 | N=C(N)N1CCC(COc2cc(Cl)cc(OS(=O)(=O)c3ccccc3Cl)c2)CC1 |
| 16 | Cc1cc(OCC2CC[N+](=C([NH-])N)CC2)cc(OS(=O)(=O)c2ccccc2[N+](=O)[O-])c1 (stereo not given) |
| 35 | Cc1cc(OCC2CCN(C(=N)N)CC2)cc(OS(=O)(=O)c2cccc3ccccc23)c1 |
| 32 | Cc1cc(OCC2CCN(C(=N)N)CC2)cc(OS(=O)(=O)c2ccccc2)c1 |
